Test results taken from ChEMBL document CHEMBL1135236, “Synthesis of iodinated 3beta-aryltropanes with selective binding to either the dopamine or serotonin transporters” (Bioorg Med Chem Lett, 2002).
pIC50, pKi: −log10 of the molar value.

Assays:
[1] = molecular target: Sodium-dependent serotonin transporter (Rattus norvegicus) (UniProt P31652); experiment: Ratio of serotonin transporter potency to that of dopamine transporter potency
[2] = molecular target: Sodium-dependent serotonin transporter (Rattus norvegicus, UniProt P31652); experiment: Tested for the ability to displace [3H]- paroxetine binding in rat frontal cortex membrane against Serotonin transporter; format: cell membranes
[3] = molecular target: Sodium-dependent dopamine transporter (Rattus norvegicus, UniProt P23977); experiment: Tested for the ability to displace [125I]- RTI-55 binding in rat striatal membrane against dopamine transporter; format: cell membranes, Striatum
Sequence of Sodium-dependent dopamine transporter (P23977 whole entry): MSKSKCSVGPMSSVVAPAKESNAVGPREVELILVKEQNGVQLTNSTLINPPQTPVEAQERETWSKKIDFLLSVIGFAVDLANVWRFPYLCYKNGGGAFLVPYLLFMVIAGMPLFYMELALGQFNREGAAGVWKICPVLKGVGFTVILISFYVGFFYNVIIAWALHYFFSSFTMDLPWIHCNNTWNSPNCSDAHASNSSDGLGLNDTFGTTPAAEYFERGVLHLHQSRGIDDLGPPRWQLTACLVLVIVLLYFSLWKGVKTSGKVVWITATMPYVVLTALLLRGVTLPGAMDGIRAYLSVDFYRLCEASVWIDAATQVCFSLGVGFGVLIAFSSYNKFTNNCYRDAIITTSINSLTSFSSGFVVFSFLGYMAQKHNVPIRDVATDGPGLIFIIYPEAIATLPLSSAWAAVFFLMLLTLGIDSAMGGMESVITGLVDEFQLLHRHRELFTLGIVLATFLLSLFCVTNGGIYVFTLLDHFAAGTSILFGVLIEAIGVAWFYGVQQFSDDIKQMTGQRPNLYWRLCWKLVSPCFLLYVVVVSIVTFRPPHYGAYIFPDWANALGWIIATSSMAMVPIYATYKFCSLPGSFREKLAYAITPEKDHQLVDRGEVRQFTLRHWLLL

Sequence of Sodium-dependent serotonin transporter (Rattus norvegicus) (P31652 whole entry): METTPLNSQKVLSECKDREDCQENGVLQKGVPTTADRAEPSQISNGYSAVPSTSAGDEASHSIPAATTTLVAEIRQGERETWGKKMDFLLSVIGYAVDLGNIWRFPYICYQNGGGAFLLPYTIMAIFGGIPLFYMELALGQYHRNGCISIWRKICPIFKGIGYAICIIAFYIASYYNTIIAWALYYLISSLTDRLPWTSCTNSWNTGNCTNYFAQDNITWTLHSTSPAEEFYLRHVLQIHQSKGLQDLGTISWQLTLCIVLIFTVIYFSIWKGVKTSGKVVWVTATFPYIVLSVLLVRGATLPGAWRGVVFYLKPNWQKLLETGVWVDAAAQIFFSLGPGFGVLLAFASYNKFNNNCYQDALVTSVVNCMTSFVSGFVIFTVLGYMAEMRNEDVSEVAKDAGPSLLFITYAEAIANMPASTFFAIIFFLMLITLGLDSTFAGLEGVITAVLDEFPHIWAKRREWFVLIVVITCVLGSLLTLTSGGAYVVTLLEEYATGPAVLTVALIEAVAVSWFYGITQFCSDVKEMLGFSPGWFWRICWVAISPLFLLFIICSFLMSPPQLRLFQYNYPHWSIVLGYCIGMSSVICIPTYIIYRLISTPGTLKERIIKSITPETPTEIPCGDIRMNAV
Sequence of Sodium-dependent serotonin transporter (P31652 whole entry): as above

Structure (SMILES) | Ratio [1] | pKi [2] | pIC50 [3]
CCC(=O)C1C2CCC(CC1c1ccc(I)cc1)N2 (centres undefined) | 0.9 | 8.61 | 8.66
CCC(=O)C1C2CCC(CC1c1ccc(/C=C(/C)I)cc1)N2 (centres undefined) | 510 | 9.89 | 7.18
CCC(=O)C1C2CCC(CC1c1ccc(I)c(F)c1)N2 (centres undefined) | 0.15 | 8.14 | 8.97
CCC(=O)C1C(c2ccc(I)c(F)c2)CC2CCC1N2C (centres undefined) | 0.041 | 8.04 | 9.42
CCC(=O)C1C(c2ccc(I)c(Cl)c2)CC2CCC1N2C (centres undefined) | 0.067 | 8.94 | 10.11
CCC(=O)C1C2CCC(CC1c1cccc(I)c1)N2 (centres undefined) | 1.3 | 7.80 | 7.70
CCC(=O)C1C(c2ccc(-c3cccn3C)cc2)CC2CCC1N2C/C=C\I (centres undefined) | 86 | 7.88 | 5.95
CCC(=O)C1C2CCC(CC1c1ccc(/C=C/I)cc1)N2 (centres undefined) | 83 | 9.21 | 7.29
CCC(=O)C1C2CCC(CC1c1ccc(/C=C(\C)I)cc1)N2 (centres undefined) | 710 | 9.24 | 6.40
CCC(=O)C1C2CCC(CC1c1ccc(I)c(Cl)c1)N2 (centres undefined) | 0.079 | 8.97 | 10.07
CCC(=O)C1C(c2ccc(-c3cccn3C)cc2)CC2CCC1N2C/C=C/I (centres undefined) | 270 | 8.55 | 6.12
CCC(=O)C1C(c2ccc(I)cc2)CC2CCC1N2C (centres undefined) | 0.9 | 8.73 | 8.77
Cc1ccc([C@H]2CC3CCC([C@H]2C(=O)C(C/C=C/I)C/C=C/I)N3C)cc1 (some centres undefined) | – | < 5.96 | 7.33
Cc1ccc(C2CC3CCC(C2C(=O)CC/C=C/I)N3C)cc1 (centres undefined) | 0.26 | 7.29 | 7.88
CCC(=O)C1C(c2cccc(I)c2)CC2CCC1N2C (centres undefined) | 2.9 | 7.71 | 7.25
